{"source": "patent US7259004B1", "about": "“Endophytic streptomycetes from higher plants with biological activity” (Montana State University, priority 2002, dated 2007)", "key": {"[1]": {"test_system": "Staphylococcus aureus ATCC 33591 (MRSA)", "test": "microbroth dilution MIC", "format": "cell-based", "conditions": "Staphylococcus aureus; Table 15"}, "[2]": {"test_system": "Enterococcus faecalis ATCC 51299 (VRE)", "test": "microbroth dilution MIC", "format": "cell-based", "conditions": "Enterococcus faecalis; Table 15"}, "S. epidermis 12228": {"test_system": "S. epidermis 12228", "test": "microbroth dilution MIC", "format": "cell-based, Staphylococcus epidermidis", "conditions": "Staphylococcus epidermidis, ATCC12228; Table 15; read-out: MIC Staphylococcus epidermidis ATCC 12228"}, "E. faecium 49624": {"test_system": "E. faecium 49624", "test": "microbroth dilution MIC", "format": "cell-based, Enterococcus faecium", "conditions": "Enterococcus faecium, ATCC49624; Table 15; read-out: MIC Enterococcus faecium ATCC 49624"}, "E. faecalis 29212": {"test_system": "E. faecalis 29212", "test": "microbroth dilution MIC", "format": "cell-based, Enterococcus faecalis", "conditions": "Enterococcus faecalis, ATCC29212; Table 15; read-out: MIC Enterococcus faecalis ATCC 29212"}, "S. aureus 29213": {"test_system": "S. aureus 29213", "test": "microbroth dilution MIC", "format": "cell-based, Staphylococcus aureus", "conditions": "Staphylococcus aureus, ATCC29213; Table 15; read-out: MIC Staphylococcus aureus ATCC 29213"}, "[3]": {"test_system": "Listeria monocytogenes 19114", "test": "microbroth dilution MIC", "format": "cell-based", "conditions": "Listeria monocytogenes, ATCC19114; Table 15; read-out: MIC Listeria monocytogenes ATCC 19114"}, "[4]": {"test_system": "Listeria monocytogenes 19115", "test": "microbroth dilution MIC", "format": "cell-based", "conditions": "Listeria monocytogenes, ATCC19115; Table 15; read-out: MIC Listeria monocytogenes ATCC 19115"}, "[5]": {"test_system": "Staphylococccus simulans 11631", "test": "microbroth dilution MIC", "format": "cell-based, Staphylococcus simulans", "conditions": "Staphylococcus simulans, ATCC11631; Table 15; read-out: MIC Staphylococcus simulans ATCC 11631"}, "[6]": {"test_system": "Staphylococccus aureus 27734", "test": "microbroth dilution MIC", "format": "cell-based, Staphylococcus aureus", "conditions": "Staphylococcus aureus, ATCC27734; Table 15; read-out: MIC Staphylococcus aureus ATCC 27734"}, "[7]": {"test_system": "Streptococcus pneumoniae 49619", "test": "microbroth dilution MIC", "format": "cell-based", "conditions": "Streptococcus pneumoniae, ATCC49619; Table 15; read-out: MIC Streptococcus pneumoniae ATCC 49619"}, "[8]": {"test_system": "Bacillus anthracis 40/BA 100", "test": "microbe, parasite or virus in culture", "format": "cell-based", "conditions": "40/BA100, read-out: MIC Bacillus anthracis 40/BA 100"}, "Bacillus anthracis 14578": {"test_system": "Bacillus anthracis 14578", "test": "microbe, parasite or virus in culture", "format": "cell-based", "conditions": "Bacillus anthracis, 14578, read-out: MIC Bacillus anthracis 14578"}, "Bacillus anthracis 28": {"test_system": "Bacillus anthracis 28", "test": "microbe, parasite or virus in culture", "format": "cell-based", "conditions": "Bacillus anthracis, 28, read-out: MIC Bacillus anthracis 28"}, "Bacillus anthracis 62-8": {"test_system": "Bacillus anthracis 62-8", "test": "microbe, parasite or virus in culture", "format": "cell-based", "conditions": "Bacillus anthracis, 628, read-out: MIC Bacillus anthracis 62-8"}, "[9]": {"test_system": "Shigella dysenteriae ATCC 11835", "test": "microbroth dilution MIC", "format": "cell-based", "conditions": "ATCC11835, Table 15, read-out: MIC Shigella dysenteriae ATCC 11835"}, "[10]": {"test_system": "Staphylococcus aureus GISA, ATCC 700787", "test": "microbroth dilution MIC", "format": "cell-based", "conditions": "ATCC700787, Table 15, read-out: MIC Staphylococcus aureus GISA, ATCC 700787"}, "[11]": {"test_system": "Streptococcus pneumoniae ATCC 70674", "test": "microbroth dilution MIC", "format": "cell-based", "conditions": "ATCC70674, Table 15, read-out: MIC Streptococcus pneumoniae ATCC 70674"}, "[12]": {"test_system": "Streptococcus pneumoniae ATCC 70676", "test": "microbroth dilution MIC", "format": "cell-based", "conditions": "ATCC70676, Table 15, read-out: MIC Streptococcus pneumoniae ATCC 70676"}, "B. subtilis 1A757": {"test_system": "B. subtilis 1A757", "test": "microbe, parasite or virus in culture", "format": "cell-based, Bacillus subtilis", "conditions": "for MIC: Bacillus subtilis, read-out: MIC B. subtilis 1A757"}, "S. aureus ATCC 6583P": {"test_system": "S. aureus ATCC 6583P", "test": "MIC with and without double stranded DNA", "format": "cell-based, Staphylococcus aureus", "conditions": "Staphylococcus aureus, ATCC6583P, read-out: MIC S. aureus ATCC 6583P"}, "[13]": {"test": "CellTiter 96 Aqueous Non-Radioactive Cell Proliferation Assay", "format": "cell-based, human", "conditions": "human, read-out: IC50 cytotoxicity, human mammary epithelial cells"}, "[14]": {"test_system": "Human Breast Cancer Epithelial BT-20", "test": "CellTiter 96 Aqueous Non-Radioactive Cell Proliferation Assay", "format": "cell-based", "conditions": "for IC50: Homo sapiens"}, "[15]": {"test_system": "Human Cervical Cancer Epithelial ME180", "test": "CellTiter 96 Aqueous Non-Radioactive Cell Proliferation Assay", "format": "cell-based", "conditions": "Homo sapiens, ME-180, read-out: IC50 Human Cervical Cancer Epthelial ME180", "procedure,_shortened": "(§1)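 Cells rested 5 h at 37° C after seeding, then treated in triplicate with two-fold serial dilutions of compound. A-549 and ME-180 were exposed for 48 h. After 1–4 h MTS reagent at 37° C, OD490 was read and corrected by subtracting medium-only blanks.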"}, "[16]": {"test_system": "Human Lung Cancer Epithelial A549", "test": "CellTiter 96 Aqueous Non-Radioactive Cell Proliferation Assay", "format": "cell-based", "conditions": "Homo sapiens, A549, read-out: IC50 Human Lung Cancer Epithelial A549", "procedure,_shortened": "as §1"}, "[17]": {"test_system": "Human Primary Mammary Epithelial HMEC", "test": "CellTiter 96 Aqueous Non-Radioactive Cell Proliferation Assay", "format": "cell-based", "conditions": "Homo sapiens, HMEC, read-out: IC50 Human Primary Mammary Epithelial HMEC, Table 12"}, "[18]": {"test_system": "DNA synthesis in Bacillus subtilis", "test": "macromolecular synthesis whole cell assay, [3H]thymidine incorporation", "format": "cell-based", "conditions": "5 min; 1×MIC"}, "[19]": {"test_system": "RNA synthesis in Bacillus subtilis", "test": "macromolecular synthesis whole cell assay, [3H]uridine incorporation", "format": "cell-based", "conditions": "1×MIC"}, "[20]": {"test_system": "Protein synthesis in Bacillus subtilis", "test": "macromolecular synthesis whole cell assay, [3H]amino acid mixture incorporation", "format": "cell-based", "conditions": "1×MIC"}, "[21]": {"test": "solubility in acetonitrile"}, "[22]": {"test_system": "Plasmodium falciparum strain CSC-1 (Honduras)", "test": "antimalarial assay, 3H-phenylalanine radiobioassay in human red blood cells", "conditions": "Plasmodium falciparum, Erythrocyte, read-out: IC50 Plasmodium falciparum"}}, "note": "Read-outs that look alike come from different tables or passages of the source."}
{"molecule": "CS[C@H]1SC[C@H]2C(=O)N(C)[C@@H](C(C)C)C(=O)OC[C@@H](NC(=O)c3cnc4ccccc4n3)C(=O)N[C@@H](C)C(=O)N(C)[C@@H]1C(=O)N(C)[C@@H](C(C)C)C(=O)OC[C@@H](NC(=O)c1cnc3ccccc3n1)C(=O)N[C@@H](C)C(=O)N2C", "note": "[Echinomycin, reference compound]", "values": [{"measurement": "MIC", "setting": "[1]", "value": 0.5, "unit": "µg/mL"}, {"measurement": "MIC", "setting": "[2]", "value": 0.125, "unit": "µg/mL"}, {"measurement": "MIC", "setting": "S. epidermis 12228", "value": 0.25, "unit": "µg/mL"}, {"measurement": "MIC", "setting": "E. faecium 49624", "value": "≤ 0.062", "unit": "µg/mL"}, {"measurement": "MIC", "setting": "E. faecalis 29212", "value": 0.125, "unit": "µg/mL"}, {"measurement": "MIC", "setting": "S. aureus 29213", "value": 0.5, "unit": "µg/mL"}, {"measurement": "MIC", "setting": "[3]", "value": 0.5, "unit": "µg/mL"}, {"measurement": "MIC", "setting": "[4]", "value": 0.25, "unit": "µg/mL"}, {"measurement": "MIC", "setting": "[5]", "value": 0.25, "unit": "µg/mL"}, {"measurement": "MIC", "setting": "[6]", "value": 0.25, "unit": "µg/mL"}, {"measurement": "MIC", "setting": "[7]", "value": "< 0.0325", "unit": "µg/mL"}, {"measurement": "MIC", "setting": "[8]", "value": 1.4, "unit": "µg/mL"}, {"measurement": "MIC", "setting": "Bacillus anthracis 14578", "value": 1.99, "unit": "µg/mL"}, {"measurement": "MIC", "setting": "Bacillus anthracis 28", "value": 2.4, "unit": "µg/mL"}, {"measurement": "MIC", "setting": "Bacillus anthracis 62-8", "value": 1.4, "unit": "µg/mL"}, {"measurement": "MIC", "setting": "[9]", "value": 8, "unit": "µg/mL"}, {"measurement": "MIC", "setting": "[10]", "value": 1, "unit": "µg/mL"}, {"measurement": "MIC", "setting": "[11]", "value": "< 0.0325", "unit": "µg/mL"}, {"measurement": "MIC", "setting": "[12]", "value": "< 0.0325", "unit": "µg/mL"}, {"measurement": "1×MIC against Bacillus subtilis", "setting": "B. subtilis 1A757", "value": 0.25, "unit": "micrograms/ml"}, {"measurement": "MIC", "setting": "B. subtilis 1A757; 1A757, DNA +, 20 micrograms per well of sheared salmon sperm DNA", "value": 8, "unit": "µg/mL"}, {"measurement": "MIC", "setting": "B. subtilis 1A757; 1A757, DNA −", "value": 0.125, "unit": "µg/mL"}, {"measurement": "MIC", "setting": "S. aureus ATCC 6583P; DNA +, 20 micrograms per well of sheared salmon sperm DNA", "value": 16, "unit": "µg/mL"}, {"measurement": "MIC", "setting": "S. aureus ATCC 6583P; DNA −", "value": 0.5, "unit": "µg/mL"}, {"measurement": "IC50 at 48 h", "setting": "[13]; Example 15", "value": "0.0108 ± 0.0011", "unit": "µg/mL"}, {"measurement": "IC50 at 48 h", "setting": "[13]; text of Examples 18, 19", "value": 4.8, "unit": "µg/mL"}, {"measurement": "IC50", "setting": "[14]; BT-20, read-out: IC50 Human Breast Cancer Eipthelial BT-20, Table 12", "value": 0.0048, "unit": "µg/mL"}, {"measurement": "IC50", "setting": "[14]; BT-20, read-out: IC50 human breast cancer cell line BT 20, text of Examples 15, 18, 19", "value": 0.0048, "unit": "µg/mL"}, {"measurement": "IC50 human breast cancer cell line BT 20", "setting": "[14]; text of Examples 15, 18, 19, listed as echnimonycin", "value": 0.0065, "unit": "µg/mL"}, {"measurement": "IC50", "setting": "[15]", "value": 0.023, "unit": "µg/mL"}, {"measurement": "IC50", "setting": "[16]", "value": 0.145, "unit": "µg/mL"}, {"measurement": "IC50", "setting": "[17]", "value": 0.0108, "unit": "µg/mL"}, {"measurement": "% [3H]thymidine (DNA synthesis) incorporation of that of the untreated culture", "setting": "[18]", "value": 1, "unit": "%"}, {"measurement": "% [3H]uridine (RNA synthesis) incorporation of that of the untreated culture", "setting": "[19]; 5 min", "value": 41, "unit": "%"}, {"measurement": "% [3H]uridine (RNA synthesis) incorporation of that of the untreated culture", "setting": "[19]; 10 min", "value": 37, "unit": "%"}, {"measurement": "% [3H]amino acid mixture (Protein synthesis) incorporation of that of the untreated culture", "setting": "[20]; 5 min", "value": 73, "unit": "%"}, {"measurement": "% [3H]amino acid mixture (Protein synthesis) incorporation of that of the untreated culture", "setting": "[20]; 10 min", "value": 62, "unit": "%"}, {"measurement": "Solubility in acetonitrile", "setting": "[21]", "value": "sparingly soluble"}, {"measurement": "IC50", "setting": "[22]", "value": "0.00408 ± 0.0001", "unit": "µg/mL"}]}
